The target in one assay is PI3K-alpha (Homo sapiens, UniProt P42336). Briefly: PI3K-alpha fluorescence polarization assay. Format: biochemical. Particulars: read-out: PI3Kα Avg. IC50.
The target of a further assay is PI3K-gamma (Homo sapiens, UniProt P48736). Description: PI3K-gamma fluorescence polarization assay. Format: biochemical. Conditions: PI3Kγ Avg. IC50. In outline:
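Reactions used 5 ng enzyme with 2.5 μM diC8-PI(4,5)P2 and 25 μM ATP in 5 mM HEPES pH 7, 2.5 mM MgCl2, run 1 h at 25° C. After an EDTA quench (10 mM), 100 nM GST-GRP1 PH domain and 5 nM BODIPY-TMR-IP4 were added and fluorescence polarization was read.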
In general terms: Polarisation of emitted light reports the rotation of a fluorescent probe.

Molecules are shown by their SMILES.

Chain of PI3K-alpha (P42336 whole entry, species assumed): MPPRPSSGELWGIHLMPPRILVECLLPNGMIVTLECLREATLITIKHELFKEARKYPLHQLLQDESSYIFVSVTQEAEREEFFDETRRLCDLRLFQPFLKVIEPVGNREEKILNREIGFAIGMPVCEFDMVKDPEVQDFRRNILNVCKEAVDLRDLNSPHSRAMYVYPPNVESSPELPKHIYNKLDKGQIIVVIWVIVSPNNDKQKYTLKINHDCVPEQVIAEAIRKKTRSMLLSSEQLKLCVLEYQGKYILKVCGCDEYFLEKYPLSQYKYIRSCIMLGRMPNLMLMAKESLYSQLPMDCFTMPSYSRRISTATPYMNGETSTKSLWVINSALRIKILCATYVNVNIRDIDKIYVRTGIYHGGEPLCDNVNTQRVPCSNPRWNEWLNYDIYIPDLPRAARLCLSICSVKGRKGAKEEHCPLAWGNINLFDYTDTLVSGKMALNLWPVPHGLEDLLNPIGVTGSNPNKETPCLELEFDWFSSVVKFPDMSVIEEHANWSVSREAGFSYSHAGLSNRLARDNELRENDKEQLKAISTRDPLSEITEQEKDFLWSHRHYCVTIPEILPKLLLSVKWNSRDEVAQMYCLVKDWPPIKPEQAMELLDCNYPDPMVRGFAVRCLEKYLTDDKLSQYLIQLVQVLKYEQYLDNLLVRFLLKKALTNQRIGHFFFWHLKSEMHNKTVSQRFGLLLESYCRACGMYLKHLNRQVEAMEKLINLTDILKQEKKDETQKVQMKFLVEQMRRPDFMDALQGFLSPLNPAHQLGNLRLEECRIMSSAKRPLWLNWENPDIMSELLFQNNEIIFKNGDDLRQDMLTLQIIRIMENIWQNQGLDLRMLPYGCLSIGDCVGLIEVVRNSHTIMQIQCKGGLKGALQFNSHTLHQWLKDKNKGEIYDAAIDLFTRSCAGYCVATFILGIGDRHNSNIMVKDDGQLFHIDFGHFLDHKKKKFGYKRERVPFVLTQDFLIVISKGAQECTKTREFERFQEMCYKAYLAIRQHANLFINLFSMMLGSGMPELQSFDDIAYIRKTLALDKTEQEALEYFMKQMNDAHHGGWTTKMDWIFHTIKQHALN
Chain of PI3K-alpha (P27986 whole entry partner, species assumed): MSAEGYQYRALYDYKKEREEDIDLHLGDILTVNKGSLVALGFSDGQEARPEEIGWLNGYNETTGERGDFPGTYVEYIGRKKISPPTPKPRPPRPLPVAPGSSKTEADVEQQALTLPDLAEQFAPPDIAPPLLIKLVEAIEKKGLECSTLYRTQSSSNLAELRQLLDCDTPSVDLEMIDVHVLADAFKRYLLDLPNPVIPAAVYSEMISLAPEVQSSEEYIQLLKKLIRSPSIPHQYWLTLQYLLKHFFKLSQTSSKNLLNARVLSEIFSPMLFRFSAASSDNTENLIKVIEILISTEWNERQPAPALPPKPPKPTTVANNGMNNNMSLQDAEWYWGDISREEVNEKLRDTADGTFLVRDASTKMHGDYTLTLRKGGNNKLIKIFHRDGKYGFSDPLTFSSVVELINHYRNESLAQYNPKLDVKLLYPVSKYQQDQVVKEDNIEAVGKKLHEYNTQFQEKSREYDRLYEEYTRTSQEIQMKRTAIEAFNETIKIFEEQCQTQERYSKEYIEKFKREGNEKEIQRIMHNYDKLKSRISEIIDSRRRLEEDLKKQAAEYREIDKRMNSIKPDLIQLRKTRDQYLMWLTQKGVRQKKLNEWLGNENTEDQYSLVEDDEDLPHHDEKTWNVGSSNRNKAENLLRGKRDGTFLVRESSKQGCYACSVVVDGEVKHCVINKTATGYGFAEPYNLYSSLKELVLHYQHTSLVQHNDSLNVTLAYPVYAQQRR
Chain of PI3K-gamma (P48736 whole entry, species assumed, the tested form may be a part): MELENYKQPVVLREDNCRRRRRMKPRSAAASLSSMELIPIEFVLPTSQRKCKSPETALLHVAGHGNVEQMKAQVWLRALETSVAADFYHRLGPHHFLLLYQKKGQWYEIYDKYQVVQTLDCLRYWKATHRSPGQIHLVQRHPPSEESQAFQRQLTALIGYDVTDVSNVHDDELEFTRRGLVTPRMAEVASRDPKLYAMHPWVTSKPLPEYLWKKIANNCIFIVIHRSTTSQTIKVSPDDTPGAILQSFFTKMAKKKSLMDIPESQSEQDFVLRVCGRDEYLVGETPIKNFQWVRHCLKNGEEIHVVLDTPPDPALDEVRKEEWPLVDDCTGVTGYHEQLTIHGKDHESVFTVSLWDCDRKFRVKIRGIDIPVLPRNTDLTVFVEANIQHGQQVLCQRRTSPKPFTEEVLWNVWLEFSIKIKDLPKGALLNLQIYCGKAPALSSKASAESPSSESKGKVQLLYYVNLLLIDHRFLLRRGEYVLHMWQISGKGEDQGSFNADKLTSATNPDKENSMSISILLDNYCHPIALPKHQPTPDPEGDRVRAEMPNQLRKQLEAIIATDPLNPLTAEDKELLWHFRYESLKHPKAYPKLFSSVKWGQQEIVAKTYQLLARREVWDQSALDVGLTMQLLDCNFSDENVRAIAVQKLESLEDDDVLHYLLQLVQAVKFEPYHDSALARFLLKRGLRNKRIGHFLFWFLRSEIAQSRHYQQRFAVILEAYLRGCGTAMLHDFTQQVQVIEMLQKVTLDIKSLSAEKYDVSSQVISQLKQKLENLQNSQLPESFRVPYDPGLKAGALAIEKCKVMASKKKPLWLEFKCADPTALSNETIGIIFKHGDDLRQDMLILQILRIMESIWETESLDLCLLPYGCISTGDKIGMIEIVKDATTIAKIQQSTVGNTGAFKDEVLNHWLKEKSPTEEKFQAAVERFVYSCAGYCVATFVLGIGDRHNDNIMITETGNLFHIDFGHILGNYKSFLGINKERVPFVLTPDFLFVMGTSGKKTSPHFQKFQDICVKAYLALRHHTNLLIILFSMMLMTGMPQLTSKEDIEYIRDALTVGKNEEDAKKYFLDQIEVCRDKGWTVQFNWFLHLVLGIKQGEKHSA

The term IC50 denotes the concentration needed to halve the response being measured. As to `CNC(=O)Nc1ccc2c(c1)C(=O)/C(=C/c1c[nH]c3c(C#N)cc(OC)cc13)O2` [Compound 595, 1-{(2Z)-2-[(7-cyano-5-methoxy-1H-indol-3-yl)methylene]-3-oxo-2,3-dihydro-1-benzofuran-5-yl}-3-methylurea], the values for the IC50 at PI3K-alpha and against PI3K-gamma were 222 nM and 1530 nM, respectively.
The matching figures for `CNC(=O)Nc1ccc2c(c1)C(=O)/C(=C/c1c(-c3cccnc3)n(CCN3CCN(C)CC3)c3ccc(OC)cc13)O2` [Compound 596, 1-[(2Z)-2-({5-methoxy-1-[2-(4-methylpiperazin-1-yl)ethyl]-2-pyridin-3-yl-1Hindol-3-yl}methylene)-3-oxo-2,3-dihydro-1-benzofuran-5-yl]-3-methylurea]: 1.7 nM and 279 nM.
The matching figures for `CNC(=O)Nc1ccc2c(c1)C(=O)/C(=C/c1c(C)n(CCCN3CCCC3)c3ccc(OC)cc13)O2` [Compound 597, 1-[(2Z)-2-{[5-methoxy-2-methyl-1-(3-pyrrolidin-1-ylpropyl)-1H-indol-3-yl]methylidene}-3-oxo-2,3-dihydro-1-benzofuran-5-yl]-3-methylurea]: 3.5 nM and 448 nM.
The matching figures for `CNC(=O)Nc1ccc2c(c1)C(=O)/C(=C/c1c(C)n(CCCn3ccnc3)c3ccc(OC)cc13)O2` [Compound 598, 1-[(2Z)-2-({1-[3-(1H-imidazol-1-yl)propyl]-5-methoxy-2-methyl-1H-indol-3-yl}methylidene)-3-oxo-2,3-dihydro-1-benzofuran-5-yl]-3-methylurea]: 30.8 nM and 417 nM.
On to `CNC(=O)Nc1ccc2c(c1)C(=O)/C(=C/c1c(C)n(CCCN3CCN(CCO)CC3)c3ccc(OC)cc13)O2` [Compound 599, 1-{(2Z)-2-[(1-{3-[4-(2-hydroxyethyl)piperazin-1-yl]propyl}-5-methoxy-2-methyl-1H-indol-3-yl)methylidene]-3-oxo-2,3-dihydro-1-benzofuran-5-yl}-3-methylurea], for which the IC50 at PI3K-alpha amounted to 10 nM; against PI3K-gamma it was 950 nM.
As to `CNC(=O)Nc1ccc2c(c1)C(=O)/C(=C/c1c(C(=O)N(C)C)[nH]c3ccc(OC)cc13)O2` [Compound 600, 5-methoxy-N,N-dimethyl-3-[(Z)-{5-[(methylcarbamoyl)amino]-3-oxo-1-benzofuran-2(3H)-ylidene}methyl]-1H-indole-2-carboxamide], the results for the half-inhibitory concentration (IC50) at PI3K-alpha and at PI3K-gamma were 24 nM and 128 nM, respectively.
The matching figures for `CNC(=O)Nc1ccc2c(c1)C(=O)/C(=C/c1c(C(=O)N3CCN(C)CC3)[nH]c3ccc(OC)cc13)O2` [Compound 601, 1-[(2Z)-2-({5-methoxy-2-[(4-methylpiperazin-1-yl)carbonyl]-1H-indol-3-yl}methylidene)-3-oxo-2,3-dihydro-1-benzofuran-5-yl]-3-methylurea]: 8 nM and 77 nM.
`CNC(=O)Nc1ccc2c(c1)C(=O)/C(=C/c1c(C(=O)N(C)CCN(C)C)[nH]c3ccc(OC)cc13)O2` [Compound 602, N-[2-(dimethylamino)ethyl]-5-methoxy-N-methyl-3-[(Z)-{5-[(methylcarbamoyl)amino]-3-oxo-1-benzofuran-2(3H)-ylidene}methyl]-1H-indole-2-carboxamide]: the IC50 at PI3K-alpha came out at 40.5 nM; at PI3K-gamma, 316 nM.
In the case of `CNC(=O)Nc1ccc2c(c1)C(=O)/C(=C/c1c(C(=O)NC)[nH]c3ccc(OC)cc13)O2` [Compound 603, 5-methoxy-N-methyl-3-[(Z)-{5-[(methylcarbamoyl)amino]-3-oxo-1-benzofuran-2(3H)-ylidene}methyl]-1H-indole-2-carboxamide], the IC50 was 6.5 nM on PI3K-alpha and 102 nM on PI3K-gamma.
The matching figures for `CNC(=O)Nc1ccc2c(c1)C(=O)/C(=C/c1c(C#N)[nH]c3ccc(OC)cc13)O2` [Compound 604, 1-{(2Z)-2-[(2-cyano-5-methoxy-1H-indol-3-yl)methylidene]-3-oxo-2,3-dihydro-1-benzofuran-5-yl}-3-methylurea]: 10.5 nM and over 10000 nM.
With `CNC(=O)Nc1ccc2c(c1)C(=O)/C(=C/c1c(C(=O)NCCN(C)C)[nH]c3ccc(OC)cc13)O2` [Compound 605, N-[2-(dimethylamino)ethyl]-5-methoxy-3-[(Z)-{5-[(methylcarbamoyl)amino]-3-oxo-1-benzofuran-2(3H)-ylidene}methyl]-1H-indole-2-carboxamide], the results for the half-inhibitory concentration (IC50) on PI3K-alpha and at PI3K-gamma were 19 nM and 315 nM, respectively.
Take `CNC(=O)Nc1ccc2c(c1)C(=O)/C(=C/c1c(C3=CCNCC3)[nH]c3ccc(OC)cc13)O2` [Compound 606, 1-[(2Z)-2-{[5-methoxy-2-(1,2,3,6-tetrahydropyridin-4-yl)-1H-indol-3-yl]methylidene}-3-oxo-2,3-dihydro-1-benzofuran-5-yl]-3-methylurea]: the IC50 on PI3K-alpha was determined as 8 nM; at PI3K-gamma, 113 nM.
The matching figures for `CNC(=O)Nc1ccc2c(c1)C(=O)/C(=C/c1c(C3=CCNCC3)n(CCN3CCN(C)CC3)c3ccc(OC)cc13)O2` [Compound 607, 1-[(2Z)-2-({5-methoxy-1-[2-(4-methylpiperazin-1-yl)ethyl]-2-(1,2,3,6-tetrahydropyridin-4-yl)-1H-indol-3-yl}methylidene)-3-oxo-2,3-dihydro-1-benzofuran-5-yl]-3-methylurea]: 4.5 nM and 4220 nM.
For `CNC(=O)Nc1ccc2c(c1)C(=O)/C(=C/c1c(C)n(CCN3CCOCC3)c3ccc(OC)cc13)O2` [Compound 608, 1-[(2Z)-2-{[5-methoxy-2-methyl-1-(2-morpholin-4-ylethyl)-1H-indol-3-yl]methylidene}-3-oxo-2,3-dihydro-1-benzofuran-5-yl]-3-methylurea], the IC50 at PI3K-alpha came to 15.5 nM; at PI3K-gamma it was 136 nM.
The matching figures for `CNC(=O)Nc1ccc2c(c1)C(=O)/C(=C/c1c(C)n(CCN3CCCCC3)c3ccc(OC)cc13)O2` [Compound 609, 1-[(2Z)-2-{[5-methoxy-2-methyl-1-(2-piperidin-1-ylethyl)-1H-indol-3-yl]methylidene}-3-oxo-2,3-dihydro-1-benzofuran-5-yl]-3-methylurea]: 15 nM and 446 nM.
On to `CNC(=O)Nc1ccc2c(c1)C(=O)/C(=C/c1c(C)n(CCN(C)C)c3ccc(OC)cc13)O2` [Compound 610, 1-[(2Z)-2-({1-[2-(dimethylamino)ethyl]-5-methoxy-2-methyl-1H-indol-3-yl}methylidene)-3-oxo-2,3-dihydro-1-benzofuran-5-yl]-3-methylurea], for which the values for the IC50 at PI3K-alpha and against PI3K-gamma were 11.5 nM and 106 nM, respectively.
The matching figures for `CNC(=O)Nc1ccc2c(c1)C(=O)/C(=C/c1c(C)n(CCN3CCCC3)c3ccc(OC)cc13)O2` [Compound 611, 1-[(2Z)-2-{[5-methoxy-2-methyl-1-(2-pyrrolidin-1-ylethyl)-1H-indol-3-yl]methylidene}-3-oxo-2,3-dihydro-1-benzofuran-5-yl]-3-methylurea]: 19.5 nM and 712 nM.
The matching figures for `CNC(=O)Nc1ccc2c(c1)C(=O)/C(=C/c1c(CN(C)C)[nH]c3ccc(OC)cc13)O2` [Compound 612, 1-[(2Z)-2-({2-[(dimethylamino)methyl]-5-methoxy-1H-indol-3-yl}methylidene)-3-oxo-2,3-dihydro-1-benzofuran-5-yl]-3-methylurea]: 15.5 nM and 121 nM.
The matching figures for `CNC(=O)Nc1ccc2c(c1)C(=O)/C(=C/c1c(CN(C)CCN(C)C)[nH]c3ccc(OC)cc13)O2` [Compound 613, 1-[(2Z)-2-{[2-({[2-(dimethylamino)ethyl](methyl)amino}methyl)-5-methoxy-1Hindol-3-yl]methylidene}-3-oxo-2,3-dihydro-1-benzofuran-5-yl]-3-methylurea]: 12.5 nM and 154 nM.
For the molecule `CNC(=O)Nc1ccc2c(c1)C(=O)/C(=C/c1c(-c3nc(C(C)C)no3)n(CCN3CCN(C)CC3)c3ccc(OC)cc13)O2` [Compound 614, 1-[(2Z)-2-({5-methoxy-2-[3-(1-methylethyl)-1,2,4-oxadiazol-5-yl]-1-[2-(4-methylpiperazin-1-yl)ethyl]-1H-indol-3-yl}methylidene)-3-oxo-2,3-dihydro-1-benzofuran-5-yl]-3-methylurea], the IC50 amounted to 3.5 nM on PI3K-alpha and 355 nM against PI3K-gamma.
The matching figures for `CNC(=O)Nc1ccc2c(c1)C(=O)/C(=C/c1c(CN3CCN(C)CC3)[nH]c3ccc(OC)cc13)O2` [Compound 615, 1-[(2Z)-2-({5-methoxy-2-[(4-methylpiperazin-1-yl)methyl]-1H-indol-3-yl}methylidene)-3-oxo-2,3-dihydro-1-benzofuran-5-yl]-3-methylurea]: 9.5 nM and 136 nM.
The matching figures for `CNC(=O)Nc1ccc2c(c1)C(=O)/C(=C/c1c(-c3c(C)nn(C)c3C)[nH]c3ccc(OC)cc13)O2` [Compound 616, 1-[(2Z)-2-{[5-methoxy-2-(1,3,5-trimethyl-1H-pyrazol-4-yl)-1H-indol-3-yl]methylidene}-3-oxo-2,3-dihydro-1-benzofuran-5-yl]-3-methylurea]: 0.4 nM and 4.8 nM.
The matching figures for `CCn1c(C)c(/C=C2\Oc3ccc(NC(=O)Nc4ccc(N(C)C)cc4)cc3C2=O)c2cc(OC)ccc21` [Compound 681, 1-[4-(dimethylamino)phenyl]-3-{(2Z)-2-[(1-ethyl-5-methoxy-2-methyl-1H-indol-3-yl)methylidene]-3-oxo-2,3-dihydro-1-benzofuran-5-yl}urea]: 11.5 nM and 69.5 nM.
Regarding `Cc1[nH]c2ccc(Br)cc2c1/C=C1\Oc2c(ccc(O)c2O)C1=O` [Example 66, (2Z)-2-[(5-bromo-2-methyl-1H-indol-3-yl)methylene]-6,7-dihydroxy-1-benzofuran-3(2H)-one], the IC50 at PI3K-alpha was 232 nM; on PI3K-gamma, 2910 nM.

The record behind these values is patent publication US20090311217A1, “3-SUBSTITUTED-1H-INDOLE COMPOUNDS, THEIR USE AS MTOR KINASE AND PI3 KINASE INHIBITORS, AND THEIR SYNTHESES” (priority 2008, published 2009).
